{
  "source": "patent US6251898A",
  "about": "“Medical use of fluorenone derivatives for treating and preventing brain and spinal injury” (Questcor Pharmaceuticals, Inc., priority 1999, dated 2001)",
  "system": "neuronal damage caused by focal brain ischemia",
  "assay": "Focal cerebral ischemia, middle cerebral artery occlusion model in rats",
  "assay_type": "in vivo, Sprague-Dawley rats",
  "description": "Other in vivo tests were also carried out using \"focal\" brain ischemia (i.e., blood supply to only a portion of the brain is disrupted, as usually occurs during a stroke). These assays used a surgical procedure described in Example 25, in which the right middle cerebral artery (MCA) and the right common carotid artery (CCA) of rats were clamped shut for two hours. The clamps were then removed, and the GERI-E7 was administered subsequently. The rats were sacrificed 3 days later, and brain sections were analyzed using tetrazolium dye, to determine the volumes of brain tissue with large numbers of dead or dying neurons.\nIn a second set of in vivo tests, a middle cerebral artery occlusion model was used in rats, to evaluate the ability of test compound GERI-E7 to reduce neuronal damage caused by focal brain ischemia. These tests were also performed in the laboratory of Dr. Claude Wasterlain, at the Sepulveda VA Medical Center in Los Angeles.\nMale Sprague-Dawley rats (220 to 285 g) were intubated with an 18 gauge gavage needle and artificially respirated with a Harvard small animal respirator, 50 to 60 strokes/min, 2.0 to 3.0 cc. Anesthetization was induced by administering 1 to 2% methoxyflurane in a 1:2 O2 :N2 O gas mixture. To allow for rapid induction of the anesthetic state, succinylcholine (4 mg/kg, i.p.) was given immediately after anesthesia commenced, and surgery began 15 to 20 minutes later. Body temperature was maintained throughout by a heat lamp and rectal probe.\nFocal cerebral ischemia was induced by reversibly clipping the right middle cerebral artery (MCA) and the right common carotid artery (CCA), as described in articles such as Kaplan et al 1991. A tracheal incision approximately 2.5 cm long was made, allowing placement of 4-0 suture silk under the CCA. This allowed rapid manipulation of the artery for clip placement. The temporalis muscle was partially excised and a 2 mm burr hole was drilled 2-3 mm rostral to the point of fusion of the zygoma with the temporal bone. Saline was used throughout this procedure for washing and maintenance of moisture.\nThe MCA was occluded below the rhinal fissure with a Codman Microaneurysm Clip #1. After the MCA was occluded the animal was turned onto its back and the CCA was occluded with a Roboz Microaneurysm Clip RS-5424.\nA moistened piece of cotton was placed on the head wound and the tracheal region was partially closed by suture prior to placement of the animal in a warm cage with an oxygen tent. After a two-hour occlusion period (shown to produce a consistently measurable but non-lethal infarct), the clips were removed and methoxyflurane was administered via a nose cone. Visual verification was made for both artery occlusion, and post-occlusion reperfusion.\nAfter the clips were removed and reperfusion was established, each animal was treated with either the GERI-E7 compound, at 20 mg/kg IV, or with the saline vehicle. All test and control groups had 10 animals. The wounds were closed and the animals were returned to their home cages.\nAnimals were sacrificed 72 hours later, and the brains were perfusion-fixedwith 4% paraformaldehyde. […] Infarct area was measured with an image analysis system at 8 to 10 levels between the posterior hippocampus and piriform olfactory cortex, to the level of the rhinal fissure. Infarct volume was determined by multiplying the average infarct area by the length of the brain between the posterior hippocampus and the piriform olfactory cortex. […]",
  "data": [
    {"smiles": "CCC[C@]12CCC(=O)C=C1c1c(cc(OCC3=NCCO3)c(Cl)c1Cl)C2", "note": "[GERI-E7, R(+)-2-[[(5,6-dichloro-2,3,9,9a-tetrahydro-3-oxo-9a-propyl-1H-fluoren-7-yl)-oxy]methyl]oxazoline]", "values": [
      {"measurement": "Edema", "setting": "20 mg/kg IV after 2 h occlusion, 72 h", "value": "Edema was also reduced"},
      {"measurement": "Reduction of area of infarct volume", "setting": "20 mg/kg IV after 2 h occlusion, 72 h, FIG. 13", "value": "about 50%"},
      {"measurement": "Reduction of brain damage caused by focal brain ischemia", "setting": "animal model used", "value": "very effective in reducing brain damage"},
      {"measurement": "Reduction of infarct volumes", "setting": "first round of focal assays", "value": "about 30%"},
      {"measurement": "Reduction of infarct volumes", "setting": "second set of assays, new batch stored in liquid nitrogen, mixed with carrier less than 24 hours before injection, average", "value": 50, "unit": "%"}
    ]}
  ]
}
